Data set [1] in a line: Equilibrium (binding) constant Keq of aryl hindered ureas by 1H NMR amine exchange in d-chloroform. Format: physicochemical. The following applies: room temperature. On the procedure:
(§1) We designed a set of aryl ureas with distinguished electronic effect on the conjugated phenyl ring (Table 1) and the corresponding Keq were studied by ^1H NMR through exchanging of the urea with a set of bulky amines in d-chloroform. The equilibrium constant of the aryl urea bond increases as the bulkiness of the substitution on the amine decreases. […] The dissociation constant k−1 was measured by exchange study of the ureas with another amine and calculated through linear regression. Remarkably, the amine exchange of the tBEU could reach equilibrium within 20 minutes at room temperature in d-chloroform. The k−1 of tBEU with aryl substitution is two orders of magnitudes larger than the reported aliphatic urea (Table 1) and among the fastest dynamic chemistries reported so far. […] The substituent on the aryl group can remotely affect the HUB through electronic effects, thus offering an extra tunability on the Keq and k−1 of the bond, which is unprecedented in hindered urea chemistry. The large value of Keq also makes it possible to prepare large molecular weight aromatic hindered urea materials with quantitative conversion.
We designed a set of aryl ureas with distinguished electronic effect on the conjugated phenyl ring (Table 1) and the corresponding Keq were studied by ^1H NMR through exchanging of the urea with a set of bulky amines in d-chloroform. The equilibrium constant of the aryl urea bond increases as the bulkiness of the substitution on amine increases. […] The dissociation constant k−1 was measured by exchanging of the ureas with another amine and calculated through linear regression. […] In addition, the calculated k1 is larger than 10^5 M^−1·h^−1 indicating the urea formation can be completed within seconds upon mixing. […] The large value of Keq make it possible to prepare chemically stable aromatic hindered urea materials with quantitative conversion.
The binding constant (Keq) was measured through indirect method used previously. […] Briefly, the of Keq of the equilibrium was measured in d-chloroform and the Keq of each aryl urea was calculated accordingly. […]

Data set [2] can be described thus: Dissociation constant k−1 of hindered ureas by amine exchange experiment (1H NMR, d-chloroform). Format: physicochemical. The following applies: room temperature. On the procedure: as §1
The dissociation constant (k−1) of corresponding hinder ureas were determined through exchange experiment. Briefly, a d-chloroform (550 μL) solution of tBEU (0.050 mmol, ˜12 mg) was mixed with N-methyl-t-butyl-amine (1 eq). Then the mixture was monitored with ^1H NMR. The ratio of the two ureas was quantified by integration of the methyl/methylene hydrogen adjacent to the nitrogen atom. Linear regression of ln
[formula] ˜t giving the slope as the dissociation constant (k−1).
The method for tBEU was used except that 10 equivalent t-butylamine or n-butyl amine was used.
The dynamic behavior of the aromatic urea was then investigated by exchanging the tBEU with methyl-t-butylamine and the relative concentration of all species were monitored by ^1H NMR. […] In contrast, the aliphatic tBEU requires several days to reach equilibrium at 37° C. Through linear regression of the exchange component, the dissociate rate of the ureas were determined to be 5-12 h^−1 at room temperature, which is two order of magnitude higher than the aliphatic counterpart. […] SeeYing, H.; Zhang, Y.; Cheng, J. Nat. Commun. 2014, 5, 3218, which is incorporated by reference herein in its entirety.

Data set [3] can be described thus: HPLC analysis of Ph-tBEU hydrolysis kinetics in 1:1 DMSO-aqueous buffer at various pH. Type of data set: physicochemical. On the procedure: FIGS. 1A to 1C depict the hydrolysis of phenyl-N-tetrabutyl-N-ethyl urea (Ph-tBEU) in 1:1 DMSO-aqueous buffer at various pH conditions at 37° C. as analyzed by HPLC. […] The dotted line marks the measured k−1 of the Ph-tBEU under the same condition through exchange with 10 equivalents of t-butyl amine.
The hydrolysis of aryl tBEU under different pH conditions was then studied in 1:1 DMSO-aqueous buffer solution at 23° C. […] Kinetic analysis of the hydrolytic kinetics confirmed that the overall urea degradation rate is determined by the urea dissociation and can be expressed as
HPLC Analysis of pH-tBEU Hydrolysis Kinetics in 50:50 DMSO-H2O at 37° C.
Ph-tBEU stock solution was prepared in DMSO as 2 mg/mL. The solution was diluted with 1:1 DMSO/buffer to 20 μg/mL ([…]) and incubated at 37° C. At specified time, the solution was analyzed by HPLC to quantify the remaining tBEU content by standard calibration curve (λabs=264 nm).
The standard sample of Ph-tBEU was prepared by diluting the stock solution with acetonitrile to a 2-fold serial dilution and analyzed instantly after preparation. The pH 1, 7, 10 buffers were prepared by adding acid/base to 1*PBS solution. pH 4 buffer was prepared by citric acid-Na2HPO4 (0.1 M). The pH of all the buffers were confirmed by pH meter prior to conducting the experiments.

For data set [4] the following is noted: aliphatic HUB, adapted from Ying et al. Nat. Commun. 2014; cited from earlier work.
The conditions of data set [5]: cited from earlier work.

The values that follow come from patent US10822448B2, “Dynamic urea bonds with fast hydrolytic kinetics for polymers” (THE BOARD OF TRUSTEES OF THE UNIVERSITY OF ILLINOIS, priority 2016, dated 2020).

Like-named read-outs stand apart in the source and are kept apart here.

In data set [1], `CCN(C(=O)Nc1ccc(OC)cc1)C(C)(C)C` [compound 1] had a Keq of 81000 M⁻¹. Moreover, in data set [2], the “k1 (calculated as Keq × k−1)” value is 250 M⁻¹ s⁻¹ and the “k−1 (dissociation rate)” value was 11.2 h⁻¹.
For the molecule `CCN(C(=O)Nc1ccccc1)C(C)(C)C` [compound 2, phenyl-N-tetrabutyl-N-ethyl urea], in data set [1], the Keq was found to be 360000 M⁻¹. In addition, the “apparent hydrolysis constant kobs” value in data set [3] (23° C. as printed) is 0.17 h⁻¹. The “pH dependence of observed hydrolysis constant kobs” value in data set [3] (pH ranging from 3-11) is recorded as “independent of pH”. In data set [2], the “k1 (calculated as Keq × k−1)” value is 889 M⁻¹ s⁻¹ and the “k−1 (dissociation rate)” value was found to be 8.9 h⁻¹.
Turning to `CCN(C(=O)Nc1ccc([N+](=O)[O-])cc1)C(C)(C)C` [compound 3], the Keq in data set [1] came out at 6.8e+06 M⁻¹. Also, in data set [2], the “k1 (calculated as Keq × k−1)” value is 10800 M⁻¹ s⁻¹ and the “k−1 (dissociation rate)” value turned out to be 5.7 h⁻¹.
Turning to `C=C(C)C(=O)OCCNC(=O)N(CC)C(C)(C)C` [compound 4], in data set [4], the Keq is 790000 M⁻¹. Besides, the “time for exchange to reach equilibrium” value in data set [5] (aliphatic tBEU, 37° C.) is on record as “several days”. Further, the “k−1 (dissociation rate)” value in data set [5] (reported aliphatic urea) is 0.042 h⁻¹. Further, the “k1 (calculated as Keq × k−1)” value in data set [2] is 9.17 M⁻¹ s⁻¹.
